# Assay results: patent publication US20220306728A1 (priority 2019, published 2022)
# Read-outs that look alike come from different tables or passages of the source.
# Experiments:
# Experiment in all cases: microbe, parasite or virus in culture
# [1] = tested on: H3N2 and H1N1 strains; type: cell-based, influenza A virus
# [2] = tested on: H3N2 virus; type: cell-based; conditions: Influenza A virus, H3N2, MDCK
# [3] = tested on: H1N1 virus; type: cell-based; conditions: Influenza A virus, H1N1, MDCK
structure (smiles),measurement,setting,value
"COC(=O)OCOc1c2n(ccc1=O)N([C@@H]1c3ccccc3SCc3c1ccc(F)c3F)[C@@H]1COCCN1C2=O [baloxavir marboxil, reference compound]",IC50,[1]; read-out: IC50,2.3 to 4.9 nM
CCOC(=O)C1=C[C@@H](OC(CC)CC)[C@H](NC(C)=O)[C@@H](N)C1 [oseltamivir],IC50,[2],7 nM
same,IC50,[3],9.1 nM
"CC(=O)N[C@H]1[C@H]([C@H](O)[C@H](O)CO)OC(C(=O)O)=C[C@@H]1N=C(N)N [zanamivir, reference compound]",IC50,"[1]; Influenza A virus, MDCK",10.7 to 13.7 nM
